Test results published in ChEMBL document CHEMBL3751765, “Efavirenz a nonnucleoside reverse transcriptase inhibitor of first-generation: Approaches based on its medicinal chemistry” (Eur J Med Chem, 2016).

target: Human immunodeficiency virus type 1 reverse transcriptase (Human immunodeficiency virus 1, UniProt Q72547); experiment: Inhibition of HIV1 reverse transcriptase; conditions: not given

Point of comparison: `C#CC1(C2CC2)c2cc(Cl)ccc2NC(=O)N1C` (stereo not drawn), IC50 6 nM. Against it:
- CCOC(=O)[C@@H]1C[C@@]12C(=O)Nc1ccc(Cl)cc12 — 9.8-fold higher, 59 nM
- CCCCC[C@]12C[C@@]1(C(=O)OCC)C(=O)Nc1ccc(Br)cc12 — 6-fold lower, 1 nM
- COc1ccc2c(c1)N(C(=O)OC(C)C)[C@@H](CSC)C(=O)N2 — 3-fold lower, 2 nM
- C[C@@H]1O[C@](/C=C/C2CC2)(C(F)(F)F)c2cc(Cl)ccc2NC1=O — 7.7-fold higher, 46 nM
- C=CCC[C@]12C[C@@]1(C(=O)OCC)C(=O)Nc1ccc(Br)cc12 — 6-fold lower, 1 nM
- CC[C@H]1C(=O)Nc2ccc(F)cc2N1C(=O)OC(C)C [OPAVIRALINE] — 7.5-fold higher, 45 nM
- CC(C)=CCN1C(C)C(=O)Nc2ccc(Cl)cc2S1(=O)=O (stereo not drawn) — 130-fold higher, 800 nM
- O=S1(c2ccccc2)=NC(=S)Nc2ccccc21 (stereo not drawn) — 160-fold higher, 950 nM
- CCOC1(c2ccccc2)c2cc(Cl)ccc2NC(=O)N1C (stereo not drawn) — 9.3-fold higher, 56 nM

system: not listed separately; experiment: Tmax in human plasma after the first dose of drug; assay type: ADME, organism-based; conditions: not given

With `O=C1Nc2ccc(Cl)cc2[C@@](C#CC2CC2)(C(F)(F)F)O1` [EFAVIRENZ] the Tmax was 5 h.

system: not listed separately; experiment: Half life in human administered as single dose; assay type: ADME, organism-based; conditions: in vivo

`O=C1Nc2ccc(Cl)cc2[C@@](C#CC2CC2)(C(F)(F)F)O1` [EFAVIRENZ] showed a half-life of 52 h.

system: not listed separately; experiment: Half life in human administered as multiple doses; assay type: ADME, organism-based; conditions: in vivo

In the case of `O=C1Nc2ccc(Cl)cc2[C@@](C#CC2CC2)(C(F)(F)F)O1` [EFAVIRENZ], the half-life is reported as 40 h.

target: Human immunodeficiency virus type 1 reverse transcriptase (Human immunodeficiency virus 1) (UniProt Q72547); conditions: not given

Point of comparison: `C=CCO[C@]1(C(F)(F)F)OC(=O)Nc2ccc(Cl)cc21`, IC90 3.9 nM. Against it:
- O=C1Nc2ccc(Cl)cc2[C@@](C#Cc2ccccn2)(C(F)(F)F)O1 — within 1.5-fold, 5.39 nM
- Nc1ccc2c(c1)[C@@](C#CC1CC1)(C(F)(F)F)OC(=O)N2 — 5.3-fold higher, 20.6 nM
- CNc1ccc2c(c1)[C@@](C#CC1CC1)(C(F)(F)F)OC(=O)N2 — 2.3-fold higher, 9.02 nM
- O=C1Nc2ccc(Cl)cc2[C@@](C#CC2CC2)(C(F)(F)F)N1 — within 1.5-fold, 2.7 nM
- O=C1Nc2ccc(-c3ccccc3)cc2[C@@](C#CC2CC2)(C(F)(F)F)O1 — 72-fold higher, 279 nM
- CC(C)C#C[C@]1(C(F)(F)F)NC(=O)Nc2ccc(Cl)cc21 — within 1.5-fold, 3 nM
- Cc1ccc2c(c1)[C@@](C#CC1CC1)(C(F)(F)F)OC(=O)N2 — 1.8-fold higher, 7.11 nM
- CCO[C@]1(C(F)(F)F)OC(=O)Nc2ccc(Cl)cc21 — 4.7-fold higher, 18.3 nM
- CN(C)c1ccc2c(c1)[C@@](C#CC1CC1)(C(F)(F)F)OC(=O)N2 — 2.1-fold higher, 8.33 nM
- CC(C)=CCO[C@]1(C(F)(F)F)OC(=O)Nc2ccc(Cl)cc21 — within 1.5-fold, 2.68 nM
- O=C1Nc2ccc(Cl)cc2[C@@](C#Cc2ccco2)(C(F)(F)F)O1 — within 1.5-fold, 3.8 nM
- CCCO[C@@](C#CC1CC1)(c1cc(CC)c(C)[nH]c1=O)C(F)(F)F — 8.2-fold higher, 32 nM
- CCCCO[C@]1(C(F)(F)F)OC(=O)Nc2ccc(Cl)cc21 — 2.6-fold higher, 10.2 nM
- O=C1Nc2ccc(F)cc2[C@@](C#CC2CC2)(C(F)(F)F)O1 — 1.9-fold higher, 7.35 nM
- COc1ccc2c(c1)[C@@](C#CC1CC1)(C(F)(F)F)OC(=O)N2 — 1.9-fold lower, 2 nM
- O=C1Nc2ccccc2[C@@](C#CC2CC2)(C(F)(F)F)O1 — 2.6-fold higher, 10.3 nM
- CN1C(=O)C(O)(C#CC2CC2)c2ccccc21 (stereo not drawn) — 10-fold higher, 40 nM
- CC[C@H]1C(=O)Nc2ccc(F)cc2N1C(=O)OC(C)C [OPAVIRALINE] — within 1.5-fold, 4.8 nM
- O=C1Nc2ccc(OC(F)(F)F)cc2[C@@](C#CC2CC2)(C(F)(F)F)O1 — 4.8-fold higher, 18.9 nM
- O=C1Nc2cccc(F)c2[C@@](C#CC2CC2)(C(F)(F)F)O1 — within 1.5-fold, 4.35 nM
- O=C1Nc2ccc([N+](=O)[O-])cc2[C@@](C#CC2CC2)(C(F)(F)F)O1 — 4.7-fold lower, 0.83 nM
- Cc1ccc2c(c1)C(O)(C#CC1CC1)C(=O)N2C (stereo not drawn) — 1.5-fold higher, 6 nM
- CC(C)CCO[C@]1(C(F)(F)F)OC(=O)Nc2ccc(Cl)cc21 — 2.6-fold higher, 10.1 nM
- CC(=O)Nc1ccc2c(c1)[C@@](C#CC1CC1)(C(F)(F)F)OC(=O)N2 — 76-fold higher, 296 nM
